From PMC8041284, “Tunable Methacrylamides for Covalent Ligand Directed Release Chemistry” (Journal of the American Chemical Society, 2021)
*1 amine or outer side, *2 acyl side, *3 side chain or, on linkers, in order; H or OH if unused. Where a SMILES comes first, the peptide text is derived from it. Bridges are numbered along the chain shown (N, C = ends). [ ]: non-standard residue; d: D form. The star is where a group is joined. hTyr(3S-OH,4S-OH,3'-OSO3H) = N[C@H](C(=O)O)[C@H](O)[C@@H](O)c1ccc(O)c(OS(=O)(=O)O)c1; Orn(4R-OH,5R-OH) = O=C([C@H](C[C@@H](O)[C@@H](O)N[*:3])N[*:1])[*:2]; Pro(3S-OH,4S-Me) = C[C@H]1CN[C@H](C(=O)O)[C@H]1O; X1 = CCCCCOc1ccc(-c2cc(-c3ccc(C(=O)*)cc3)no2)cc1; Gln(3R-OH) = NC(=O)C[C@@H](O)[C@H](N)C(=O)O; Hyp = O=C(O)[C@@H]1C[C@@H](O)CN1

The compounds below were run against BTK (Homo sapiens, UniProt Q06187) (assay: biochemical). Conditions: read-out: BTK inhibition (%), 0.75 uM BTK, […] probe 3l, 15 min preincubation.
Chain of BTK (Q06187 402-655 limits assumed): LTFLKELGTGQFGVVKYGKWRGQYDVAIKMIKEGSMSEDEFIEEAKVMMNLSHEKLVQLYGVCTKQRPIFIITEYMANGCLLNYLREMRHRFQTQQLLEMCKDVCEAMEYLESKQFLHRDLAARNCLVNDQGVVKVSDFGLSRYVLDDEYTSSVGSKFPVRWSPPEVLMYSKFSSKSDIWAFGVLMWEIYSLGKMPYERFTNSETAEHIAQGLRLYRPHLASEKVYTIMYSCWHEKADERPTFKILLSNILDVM

SMILES	inhibition at 10 µM [%]
CC(C)=CCC[C@](C)(O)[C@H]1CC[C@]2(C)[C@@H]1[C@H](O)C[C@@H]1[C@@]3(C)CC[C@H](O[C@@H]4O[C@H](CO)[C@@H](O)[C@H](O)[C@H]4O)C(C)(C)[C@@H]3CC[C@]12C [PCM-0216344]	7.7
Nc1ncnc2c1C(=O)N(c1ccc(C3CCC(CC(=O)O)CC3)cc1)CCO2 (stereo not drawn) [PCM-0095810]	3.1
O=C1[C@H](CC[C@H](O)c2ccc(F)cc2)[C@@H](c2ccc(O)cc2)N1c1ccc(F)cc1 [PCM-0095103]	31
CCCCS(=O)(=O)N[C@@H](Cc1ccc(OCCCCC2CCNCC2)cc1)C(=O)O [PCM-0215839]	-1.5
CCCCC1OC(=O)c2ccccc21 (stereo not drawn) [PCM-0216506]	6.9
CN1CCN(C2=Nc3cc(Cl)ccc3Nc3ccccc32)CC1 [PCM-0064549]	4.7
OCCn1cc(-c2cnc3nnn(Cc4ccc5ncccc5c4)c3n2)cn1 [PCM-0095071]	0
CNCC(O)c1ccc(O)cc1 (stereo not drawn) [PCM-0065519]	7
COc1cc2nc(N3CCCC3)nc(NCCCCCN3CCCC3)c2cc1OC [PCM-0215440]	17.8
CN1CCC(=C2c3ccccc3C=Cc3ccccc32)CC1 [PCM-0064430]	-9.3
Cc1cccc(C)c1N(CC(=O)Nc1ccc(-c2ncon2)cc1)C(=O)C1CCS(=O)(=O)CC1 [PCM-0216196]	2.3
N#C/C(=C1/SC[C@@H](c2ccc(Cl)cc2Cl)S1)n1ccnc1 [PCM-0214788]	3.9
COC(=O)C1=CO[C@@H](O[C@@H]2O[C@H](CO)[C@@H](O)[C@H](O)[C@H]2O)[C@@H]2[C@@]3(C)O[C@H]3[C@@H](O)[C@]12O [PCM-0216309]	-0.8
CSC[C@H](N)C(=O)O [PCM-0215958]	2.6
C[C@@H](O[C@H]1OCCN(Cc2nn(P(=O)(O)O)c(=O)[nH]2)[C@H]1c1ccc(F)cc1)c1cc(C(F)(F)F)cc(C(F)(F)F)c1 [PCM-0214804]	10.1
CCCCCCCCCCCCCCCCn1cc[n+](Cc2ccccc2)c1C [PCM-0095755]	-51.7
O=C(c1cncc(Br)c1)N1CCC(N2CCCC2)CC1 [PCM-0095791]	5.4
NC(=O)[C@@H](CCC(F)(F)F)N(Cc1ccc(-c2ncon2)cc1F)S(=O)(=O)c1ccc(Cl)cc1 [PCM-0214565]	9.3
N=C(N=C(N)N)N1CCOCC1 [PCM-0085762]	-3.1
CC(=O)SCC(Cc1ccccc1)C(=O)NCC(=O)OCc1ccccc1 (stereo not drawn) [PCM-0086128]	3.1
COc1cc(O)c2c(c1)oc(=O)c1c3cc(O)c(O)cc3oc21 [PCM-0216602]	47.9
CC(C)=CCC[C@](C)(O)[C@H]1CC[C@]2(C)[C@@H]1[C@H](O)C[C@@H]1[C@@]3(C)CC[C@H](O)C(C)(C)[C@@H]3[C@@H](O[C@@H]3O[C@H](CO)[C@@H](O)[C@H](O)[C@H]3O[C@@H]3O[C@@H](C)[C@H](O)[C@@H](O)[C@H]3O)C[C@]12C [PCM-0216405]	-5.4
CC(=O)c1ccc(O)cc1O [PCM-0215067]	9.3
Clc1ccc(C(c2c[nH]c3ccccc23)c2c[nH]c3ccccc23)cc1 [PCM-0215640]	71.7

SMILES	inhibition at 10 µM [%]
O=C1C[C@@H](c2ccc(O)cc2)Oc2cc(O)cc(O)c21 [PCM-0094816]	3.9
O=c1cc(-c2ccccc2)oc2cc(O[C@@H]3O[C@H](CO[C@@H]4O[C@H](CO)[C@@H](O)[C@H](O)[C@H]4O)[C@@H](O)[C@H](O)[C@H]3O)c(O)c(O)c12 [PCM-0216453]	30.9
C=CC(=O)Nc1cccc(Oc2nc(Nc3ccc(N4CCN(C)CC4)cc3)ncc2Cl)c1 [PCM-0095023]	91.7
Fc1ccc(-c2c3cccc(C(F)(F)F)c3nn2Cc2ccc(F)cc2Cl)cc1 [PCM-0215789]	30.1
CCCCCCC(O)C(=O)O (stereo not drawn) [PCM-0216106]	-10
C=CC[C@@H]1/C=C(\C)C[C@H](C)C[C@H](OC)[C@H]2O[C@@](O)(C(=O)C(=O)N3CCCC[C@H]3C(=O)O[C@H](/C(C)=C/[C@@H]3CC[C@@H](O)[C@H](OC)C3)[C@H](C)[C@@H](O)CC1=O)[C@H](C)C[C@@H]2OC [PCM-0214806]	-2.8
CCC1=C[C@@H]2CN3CCc4c([nH]c5ccccc45)[C@@](C(=O)OC)(C2)[C@@H]13 [PCM-0085818]	8.6
O=c1ccc2ccc(O)cc2[nH]1 [PCM-0216227]	7.8
CCO[C@H]1O[C@@H]2O[C@@]3(C)CC[C@H]4[C@H](C)CC[C@@H]([C@H]1C)[C@@]24OO3 [PCM-0214993]	-16.3
O=c1cc(-c2ccc(O)cc2)oc2c([C@@H]3O[C@H](CO)[C@@H](O)[C@H](O)[C@H]3O)c(O)cc(O)c12 [PCM-0216454]	26.3
CC(C)C[C@H](NC(=O)[C@@H](NC(=O)c1cccc(-c2ccccc2)n1)[C@@H](C)O)B(O)O [PCM-0214714]	6.2
CC(C)=CCC[C@](C)(O)[C@H]1CC[C@]2(C)[C@@H]1[C@H](O)C[C@@H]1[C@@]3(C)CC[C@H](O)C(C)(C)[C@@H]3[C@@H](O)C[C@]12C [PCM-0214875]	17.9
CCOc1cc2ncc(C#N)c(Nc3ccc(OCc4ccccn4)c(Cl)c3)c2cc1NC(=O)/C=C/CN(C)C [PCM-0095315]	80
CC(C)c1c(C(=O)Nc2ccccc2)c(-c2ccccc2)c(-c2ccc(F)cc2)n1CC[C@@H](O)C[C@@H](O)CC(=O)O [PCM-0064680]	10.1
CCn1cc(-c2ccnc3[nH]c(-c4cccc(CN(C)C)c4)cc23)c(-c2ccc(NC(=O)N(C)C)cc2)n1 [PCM-0095464]	48.3
Cc1c(CN2CCN(C(=O)[C@H](C)O)CC2)sc2c(N3CCOCC3)nc(-c3cnc(N)nc3)nc12 [PCM-0095406]	75.2
Nc1nccc(Oc2ccc(NC(=O)c3c[nH]cc(-c4ccc(F)cc4)c3=O)cc2F)c1Cl [PCM-0095240]	68.3
CCOC(=O)c1ccc(NC2CCCCC2)c(N)c1 [PCM-0095725]	31.7
C=C[C@@H]1C[C@]1(NC(=O)[C@@H]1C[C@@H]2CN1C(=O)[C@H](C(C)(C)C)NC(=O)O[C@@H]1C[C@H]1CCCCCc1nc3ccc(OC)cc3nc1O2)C(=O)NS(=O)(=O)C1CC1 [PCM-0214895]	-13.2
CCCCCOc1ccc(-c2cc(-c3ccc(C(=O)N[C@H]4C[C@@H](O)[C@@H](O)NC(=O)[C@@H]5[C@@H](O)[C@@H](C)CN5C(=O)[C@H]([C@H](O)CC(N)=O)NC(=O)[C@H]([C@H](O)[C@@H](O)c5ccc(O)c(OS(=O)(=O)O)c5)NC(=O)[C@@H]5C[C@@H](O)CN5C(=O)[C@H]([C@@H](C)O)NC4=O)cc3)no2)cc1 [PCM-0215341] (X1-[Orn(4R-OH,5R-OH)]T[Hyp][hTyr(3S-OH,4S-OH,3'-OSO3H)][Gln(3R-OH)][Pro(3S-OH,4S-Me)]; lactam 1-C)	3.4
CCC1=C(C)CN(C(=O)NCCc2ccc(S(=O)(=O)NC(=O)NC3CCC(C)CC3)cc2)C1=O (stereo not drawn) [PCM-0086384]	8.6
CCCCCCCCCCCC1=C(O)C(=O)C=C(O)C1=O [PCM-0095569]	42.5
CC1=C(CSC(=S)N2CCCCC2)C(=O)c2ccccc2C1=O [PCM-0215883]	21.6
CCCc1nc(C)c2c(=O)[nH]c(-c3cc(S(=O)(=O)N4CCN(CC)CC4)ccc3OCC)nn12 [PCM-0086229]	-10.9
